{
  "source": "PubChem BioAssay (NCI)",
  "test_in_all_cases": "NCI anticancer screen, dose series, 48 h",
  "key": {"786-0 renal": {"system": "786-0 renal"}, "A498 renal": {"system": "A498 renal"}, "A549 NSCLC": {"system": "A549 NSCLC"}, "ACHN renal": {"system": "ACHN renal"}, "BT-549 breast": {"system": "BT-549 breast"}, "CAKI-1 renal": {"system": "CAKI-1 renal"}, "CCRF-CEM leukemia": {"system": "CCRF-CEM leukemia"}, "COLO 205 colon": {"system": "COLO 205 colon"}, "DU-145 prostate": {"system": "DU-145 prostate"}, "EKVX NSCLC": {"system": "EKVX NSCLC"}, "HCC-2998 colon": {"system": "HCC-2998 colon"}, "HCT-116 colon": {"system": "HCT-116 colon"}, "HCT-15 colon": {"system": "HCT-15 colon"}, "HL-60(TB) leukemia": {"system": "HL-60(TB) leukemia"}, "HOP-62 NSCLC": {"system": "HOP-62 NSCLC"}, "HOP-92 NSCLC": {"system": "HOP-92 NSCLC"}, "HS 578T breast": {"system": "HS 578T breast"}, "HT29 colon": {"system": "HT29 colon"}, "IGROV1 ovarian": {"system": "IGROV1 ovarian"}, "K-562 leukemia": {"system": "K-562 leukemia"}, "KM12 colon": {"system": "KM12 colon"}, "LOX IMVI melanoma": {"system": "LOX IMVI melanoma"}, "M14 melanoma": {"system": "M14 melanoma"}, "MALME-3M melanoma": {"system": "MALME-3M melanoma"}, "MCF7 breast": {"system": "MCF7 breast"}, "MDA-MB-231 breast": {"system": "MDA-MB-231 breast"}, "MDA-MB-435": {"system": "MDA-MB-435"}, "MOLT-4 leukemia": {"system": "MOLT-4 leukemia"}, "NCI-H226 lung": {"system": "NCI-H226 lung"}},
  "note": "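The compound was tested at five concentrations on cells cultured in 96-well plates, with a 48-hour exposure period. GI50 marks 50% less growth. TGI is the concentration that stops growth completely.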",
  "data": [
    {"smiles": "COc1cc(C(=O)/C=C/c2c(C)n([O-])c3ccc(C(F)(F)F)cc3[n+]2=O)cc(OC)c1OC", "values": [
      {"measurement": "GI50", "setting": "786-0 renal", "result": 1960, "unit": "nM"},
      {"measurement": "TGI", "setting": "786-0 renal", "result": 4.31, "unit": "µM"},
      {"measurement": "GI50", "setting": "A498 renal", "result": 14.5, "unit": "µM"},
      {"measurement": "TGI", "setting": "A498 renal", "result": 51.7, "unit": "µM"},
      {"measurement": "GI50", "setting": "A549 NSCLC", "result": 19.8, "unit": "µM"},
      {"measurement": "TGI", "setting": "A549 NSCLC", "result": "> 93.3", "unit": "µM"},
      {"measurement": "GI50", "setting": "ACHN renal", "result": 1490, "unit": "nM"},
      {"measurement": "TGI", "setting": "ACHN renal", "result": 3.82, "unit": "µM"},
      {"measurement": "GI50", "setting": "BT-549 breast", "result": 8.34, "unit": "µM"},
      {"measurement": "TGI", "setting": "BT-549 breast", "result": 25.6, "unit": "µM"},
      {"measurement": "GI50", "setting": "CAKI-1 renal", "result": 3.32, "unit": "µM"},
      {"measurement": "TGI", "setting": "CAKI-1 renal", "result": "> 38.1", "unit": "µM"},
      {"measurement": "GI50", "setting": "CCRF-CEM leukemia", "result": 564, "unit": "nM"},
      {"measurement": "TGI", "setting": "CCRF-CEM leukemia", "result": "> 100", "unit": "µM"},
      {"measurement": "GI50", "setting": "COLO 205 colon", "result": 1430, "unit": "nM"},
      {"measurement": "TGI", "setting": "COLO 205 colon", "result": 2880, "unit": "nM"},
      {"measurement": "GI50", "setting": "DU-145 prostate", "result": 4.11, "unit": "µM"},
      {"measurement": "TGI", "setting": "DU-145 prostate", "result": 14.3, "unit": "µM"},
      {"measurement": "GI50", "setting": "EKVX NSCLC", "result": 21.4, "unit": "µM"},
      {"measurement": "TGI", "setting": "EKVX NSCLC", "result": "> 100", "unit": "µM"},
      {"measurement": "GI50", "setting": "HCC-2998 colon", "result": 15.5, "unit": "µM"},
      {"measurement": "TGI", "setting": "HCC-2998 colon", "result": 35.7, "unit": "µM"},
      {"measurement": "GI50", "setting": "HCT-116 colon", "result": 830, "unit": "nM"},
      {"measurement": "TGI", "setting": "HCT-116 colon", "result": 2510, "unit": "nM"},
      {"measurement": "GI50", "setting": "HCT-15 colon", "result": 3.55, "unit": "µM"},
      {"measurement": "TGI", "setting": "HCT-15 colon", "result": 24.2, "unit": "µM"},
      {"measurement": "GI50", "setting": "HL-60(TB) leukemia", "result": 2920, "unit": "nM"},
      {"measurement": "TGI", "setting": "HL-60(TB) leukemia", "result": 7.89, "unit": "µM"},
      {"measurement": "GI50", "setting": "HOP-62 NSCLC", "result": 25.2, "unit": "µM"},
      {"measurement": "TGI", "setting": "HOP-62 NSCLC", "result": "> 100", "unit": "µM"},
      {"measurement": "GI50", "setting": "HOP-92 NSCLC", "result": 3.04, "unit": "µM"},
      {"measurement": "TGI", "setting": "HOP-92 NSCLC", "result": 21.3, "unit": "µM"},
      {"measurement": "GI50", "setting": "HS 578T breast", "result": 7.55, "unit": "µM"},
      {"measurement": "TGI", "setting": "HS 578T breast", "result": "> 77.8", "unit": "µM"},
      {"measurement": "GI50", "setting": "HT29 colon", "result": 1690, "unit": "nM"},
      {"measurement": "TGI", "setting": "HT29 colon", "result": 3.99, "unit": "µM"},
      {"measurement": "GI50", "setting": "IGROV1 ovarian", "result": 7.54, "unit": "µM"},
      {"measurement": "TGI", "setting": "IGROV1 ovarian", "result": 48.4, "unit": "µM"},
      {"measurement": "GI50", "setting": "K-562 leukemia", "result": 1650, "unit": "nM"},
      {"measurement": "TGI", "setting": "K-562 leukemia", "result": 5.85, "unit": "µM"},
      {"measurement": "GI50", "setting": "KM12 colon", "result": 13.5, "unit": "µM"},
      {"measurement": "TGI", "setting": "KM12 colon", "result": 34.3, "unit": "µM"},
      {"measurement": "GI50", "setting": "LOX IMVI melanoma", "result": 770, "unit": "nM"},
      {"measurement": "TGI", "setting": "LOX IMVI melanoma", "result": 2660, "unit": "nM"},
      {"measurement": "GI50", "setting": "M14 melanoma", "result": 2420, "unit": "nM"},
      {"measurement": "TGI", "setting": "M14 melanoma", "result": 8.46, "unit": "µM"},
      {"measurement": "GI50", "setting": "MALME-3M melanoma", "result": 1740, "unit": "nM"},
      {"measurement": "TGI", "setting": "MALME-3M melanoma", "result": 4.19, "unit": "µM"},
      {"measurement": "GI50", "setting": "MCF7 breast", "result": 4.26, "unit": "µM"},
      {"measurement": "TGI", "setting": "MCF7 breast", "result": 17.3, "unit": "µM"},
      {"measurement": "GI50", "setting": "MDA-MB-231 breast", "result": 8.54, "unit": "µM"},
      {"measurement": "TGI", "setting": "MDA-MB-231 breast", "result": "> 79.3", "unit": "µM"},
      {"measurement": "GI50", "setting": "MDA-MB-435", "result": 3.15, "unit": "µM"},
      {"measurement": "TGI", "setting": "MDA-MB-435", "result": 15.8, "unit": "µM"},
      {"measurement": "GI50", "setting": "MOLT-4 leukemia", "result": 1750, "unit": "nM"},
      {"measurement": "TGI", "setting": "MOLT-4 leukemia", "result": 5.11, "unit": "µM"},
      {"measurement": "GI50", "setting": "NCI-H226 lung", "result": 15.1, "unit": "µM"},
      {"measurement": "TGI", "setting": "NCI-H226 lung", "result": "> 57.7", "unit": "µM"}
    ]}
  ]
}
